# Assay results published in EP3009422A1, “Photo-switchable sulfonylureas and their uses” (Ludwig-Maximilians-Universität München, priority 2014, dated 2016).
# “Also recorded” adds a separate entry of the source.
# Legend:
# [1] = pKa measurement, absorbance-based platereader assay; type: physicochemical; conditions: DMSO/buffer mixture (1/1), pH 3.33-6.33, sigmoidal fitting, n = 3 assays
# Experimental: Extinction coefficients were measured on a BMG Labtech Omega Series FLUOstar microplate reader with clear flat-bottom white 96 wellplates by full spectra acquirement in low K^+ external bath buffer (containing in mM: 3 KCl, 118 NaCl, 25 NaHCO3, 2 CaCl2, 1 MgCl2, 10 HEPES; NaOH to pH 7.4). All JB253-containing solutions (dilution series, n = 4: 10 nM; 100 nM; 1 µM; 10 µM; 25 µM; 50 µM) were background substracted and fitted with a linear slope. […] Full absorbance spectra (280-800 nm) were acquired and background subtracted before spectral differences were calculated. The total change of maximal positive and maximal negative difference was calculated and plotted against pH. Sigmoidal fit of the obtained plot gave access to the pKa.
# KATP channels = test: Whole cell patch clamp of KATP currents in MIN6 beta cells; type: cell-based; conditions: illumination 470 ± 20 nm, JB253 concentration printed as 10 mM
# Experimental: MIN6 cells (obtained from Dr Jun-ichi Miyazaki, Osaka University, see Miyazaki et al., 1990)) were cultured in DMEM supplemented with 15% FBS, 1% glutamine, 2% HEPES buffer, 0.0005% β-mercaptoethanol and 1% penicillin/streptomycin. Cells were seeded onto glass coverslips 24 hrs before whole cell patch clamp experiments using micropipettes generated from thin-walled borosilicate capillaries (3-6 MΩ). Bath solution contained in mM: 3 KCl, 118 NaCl, 25 HEPES, 3 MgCl2 and 2 CaCl2. Pipette solution contained in mM: 150 KCl, 3 MgCl2, 5 EGTA, 10 HEPES, 0.3 K2ATP (pH 7.2), and the holding potential was -60 mV. Illumination was provided using a X-Cite 120 mercury arc lamp (Lumen Dynamics) with a bandpass filter (470 ± 20 nm). Voltage ramps from -20 mV to -120 mV (500 ms duration) were applied every 5 s to produce current-voltage relationships in the presence and absence of JB253. All cells lines were regularly mycoplasma tested.
# SUR1 = target: T1, SUR1 (Rattus norvegicus, UniProt Q09429); test: [3H]-glibenclamide displacement radioassay in SUR1-expressing HEK293t cells; type: binding
# T1 construct: expressed in transfected cells; host or cells: HEK293t
# T1 sequence (Q09429 whole entry): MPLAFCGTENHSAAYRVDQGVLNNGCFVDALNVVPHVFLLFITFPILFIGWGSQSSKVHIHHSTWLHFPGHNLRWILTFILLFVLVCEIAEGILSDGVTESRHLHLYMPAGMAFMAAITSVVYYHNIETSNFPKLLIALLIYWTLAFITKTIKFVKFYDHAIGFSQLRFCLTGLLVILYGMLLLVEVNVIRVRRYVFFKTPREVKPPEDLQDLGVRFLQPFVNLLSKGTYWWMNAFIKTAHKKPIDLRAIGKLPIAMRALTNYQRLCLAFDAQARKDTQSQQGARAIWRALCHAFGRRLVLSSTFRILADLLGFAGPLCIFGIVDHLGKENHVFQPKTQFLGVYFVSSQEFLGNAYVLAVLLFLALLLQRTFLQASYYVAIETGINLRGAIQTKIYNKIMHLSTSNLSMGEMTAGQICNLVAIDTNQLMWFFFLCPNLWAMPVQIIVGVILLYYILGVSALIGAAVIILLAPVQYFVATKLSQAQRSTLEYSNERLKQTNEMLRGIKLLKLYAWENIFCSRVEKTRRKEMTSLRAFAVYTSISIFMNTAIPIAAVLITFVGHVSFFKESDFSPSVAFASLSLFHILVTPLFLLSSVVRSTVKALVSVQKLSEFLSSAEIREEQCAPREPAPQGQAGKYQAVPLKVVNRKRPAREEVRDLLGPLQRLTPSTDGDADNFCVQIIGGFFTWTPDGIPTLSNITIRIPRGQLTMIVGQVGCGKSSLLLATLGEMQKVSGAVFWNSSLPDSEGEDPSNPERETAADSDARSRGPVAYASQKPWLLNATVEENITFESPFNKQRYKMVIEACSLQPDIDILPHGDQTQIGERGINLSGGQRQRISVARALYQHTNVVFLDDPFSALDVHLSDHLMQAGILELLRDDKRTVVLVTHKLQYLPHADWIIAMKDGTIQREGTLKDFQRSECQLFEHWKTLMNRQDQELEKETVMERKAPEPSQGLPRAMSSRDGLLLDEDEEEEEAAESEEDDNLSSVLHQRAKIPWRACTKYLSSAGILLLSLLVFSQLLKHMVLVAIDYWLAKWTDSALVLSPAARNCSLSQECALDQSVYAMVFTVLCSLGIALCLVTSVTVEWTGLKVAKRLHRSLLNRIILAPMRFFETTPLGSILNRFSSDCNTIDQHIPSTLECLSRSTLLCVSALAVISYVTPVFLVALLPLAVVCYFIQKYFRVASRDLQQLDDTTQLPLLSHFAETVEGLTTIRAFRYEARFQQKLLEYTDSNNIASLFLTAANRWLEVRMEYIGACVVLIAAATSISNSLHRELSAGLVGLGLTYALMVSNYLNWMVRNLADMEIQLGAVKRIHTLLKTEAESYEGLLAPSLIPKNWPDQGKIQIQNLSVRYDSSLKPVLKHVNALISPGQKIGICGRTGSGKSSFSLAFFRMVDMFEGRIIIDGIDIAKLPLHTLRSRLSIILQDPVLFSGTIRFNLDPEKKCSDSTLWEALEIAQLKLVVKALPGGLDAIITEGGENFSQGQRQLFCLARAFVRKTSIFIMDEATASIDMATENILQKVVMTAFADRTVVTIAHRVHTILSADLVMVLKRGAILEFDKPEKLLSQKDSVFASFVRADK
# Experimental: SUR1-expressing HEK293t cells were harvested and washed twice in assaying buffer containing in mM: 119 NaCl, 4.7 KCl, […], 1.2 KH2PO4, 1.2 MgSO4, 5 NaHCO3, and 20 HEPES, pH 7.4. In a 96-well plate, ∼200,000 cells/well were incubated for 50 min with [3H]-glibenclamide (PerkinElmer) and different concentrations of glimepiride (Sigma-Aldrich) or JB253. Incubation was terminated by rapid filtration through Whatman GF/C filters by means of a Brandel MWXR-96 TI harvester and filters were washed 3 times with ice-cold assay buffer. Radioactivity was counted 6 h after cell and filter lysis in 200 µL Rotiszint EcoPlus (Roth) using a Packard microbeta scintillation counter (PerkinElmer).
# Data distribution was determined using the D'Agostino omnibus test. Non-multifactorial pairwise comparisons were made using either the Student's t-test. Interactions between multiple treatments were assessed using one-way ANOVA followed by pairwise comparisons using Bonferroni's post-hoc test. Effect sizes in islets/cells are usually sufficiently large that multiple animals/independent replication is a more important determinant of power in studies requiring statistical comparison. Non-linear regression was used to calculate the EC50 of normalized and log-transformed concentration-response curves. For [3H]-glibenclamide displacement assays, data points were fitted to the Hill equation before calculation of the halfmax value. In all cases, analysis was performed using Graphpad Prism (Graphpad Software) and IgorPro, and experimental numbers reported as independent biological replicates. No animals or data were excluded from the analysis and results were considered significant at P<0.05.
compound,measurement,setting,value
"CCN(CC)c1ccc(/N=N/c2ccc(S(=O)(=O)NC(=O)NC3CCCCC3)cc2)cc1 [JB253, (E)-N-(cyclohexylcarbamoyl)-4-((4-(diethylamino)phenyl)diazenyl)benzenesulfonamide]",pKa,[1],4.76
same,block of KATP (hyperpolarizing) currents,KATP channels,reversibly blocked; also recorded: only blocks the KATP current during illumination
same,lower affinity to SUR1 compared to glimepiride,"SUR1; [3H]-glibenclamide displacement, unaffected by illumination",1000 fold
same,IC50,"SUR1; displacement of [3H]-glibenclamide, SUR1-expressing HEK293t cells, n = 3, cis-state may relax thermally during washing",17.6 µM
